Columns and labels:
FLT3-ITD = biological target: T1, FLT3-ITD (Homo sapiens, UniProt P36888); experiment: FLT3-ITD biochemical kinase assay (AlphaScreen)
T1 construct: FLT3-ITD; Invitrogen #PV6190
T1 sequence (P36888 1-993): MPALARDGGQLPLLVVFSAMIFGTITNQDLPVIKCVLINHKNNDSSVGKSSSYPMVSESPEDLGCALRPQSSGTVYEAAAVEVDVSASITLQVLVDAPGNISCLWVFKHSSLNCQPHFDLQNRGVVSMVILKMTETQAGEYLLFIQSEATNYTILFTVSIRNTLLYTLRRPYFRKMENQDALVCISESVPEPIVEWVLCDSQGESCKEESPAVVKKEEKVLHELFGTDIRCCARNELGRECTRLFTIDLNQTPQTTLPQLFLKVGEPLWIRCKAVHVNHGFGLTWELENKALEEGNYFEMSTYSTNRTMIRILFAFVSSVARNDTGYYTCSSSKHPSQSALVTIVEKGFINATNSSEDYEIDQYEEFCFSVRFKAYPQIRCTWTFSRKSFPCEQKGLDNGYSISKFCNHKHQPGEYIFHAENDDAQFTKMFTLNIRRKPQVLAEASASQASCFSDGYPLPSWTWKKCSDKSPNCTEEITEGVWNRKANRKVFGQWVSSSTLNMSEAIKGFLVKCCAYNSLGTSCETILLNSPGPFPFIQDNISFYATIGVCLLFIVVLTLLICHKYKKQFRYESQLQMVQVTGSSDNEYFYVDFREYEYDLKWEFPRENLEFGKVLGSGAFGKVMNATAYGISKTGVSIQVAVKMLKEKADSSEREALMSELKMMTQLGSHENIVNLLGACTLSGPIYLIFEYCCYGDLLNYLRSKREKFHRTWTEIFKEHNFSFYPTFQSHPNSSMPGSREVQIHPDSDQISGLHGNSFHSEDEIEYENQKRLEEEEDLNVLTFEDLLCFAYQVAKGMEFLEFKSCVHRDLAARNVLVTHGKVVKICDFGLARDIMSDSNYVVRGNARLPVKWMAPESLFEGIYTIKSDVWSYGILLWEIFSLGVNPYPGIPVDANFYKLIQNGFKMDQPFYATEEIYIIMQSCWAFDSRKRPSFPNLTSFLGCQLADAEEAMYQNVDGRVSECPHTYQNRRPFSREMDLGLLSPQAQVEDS
In short: (§1)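 IC50 values reflect loss of AlphaScreen proximity signal (excitation 680 nm, emission 580 nm) from tyrosine phosphorylation of a biotinylated poly(Glu4-Tyr) substrate at 30 nM. ATP was 10 μM for the D835Y mutant and 100 μM for ITD. Detection used PY20 acceptor beads.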

FLT3-D835Y = biological target: T2, FLT3-D835Y (Homo sapiens, UniProt P36888, D835Y); experiment: FLT3-D835Y biochemical kinase assay (AlphaScreen)
T2 construct: purchased Invitrogen PV3967
T2 sequence (P36888 27-993 D835Y): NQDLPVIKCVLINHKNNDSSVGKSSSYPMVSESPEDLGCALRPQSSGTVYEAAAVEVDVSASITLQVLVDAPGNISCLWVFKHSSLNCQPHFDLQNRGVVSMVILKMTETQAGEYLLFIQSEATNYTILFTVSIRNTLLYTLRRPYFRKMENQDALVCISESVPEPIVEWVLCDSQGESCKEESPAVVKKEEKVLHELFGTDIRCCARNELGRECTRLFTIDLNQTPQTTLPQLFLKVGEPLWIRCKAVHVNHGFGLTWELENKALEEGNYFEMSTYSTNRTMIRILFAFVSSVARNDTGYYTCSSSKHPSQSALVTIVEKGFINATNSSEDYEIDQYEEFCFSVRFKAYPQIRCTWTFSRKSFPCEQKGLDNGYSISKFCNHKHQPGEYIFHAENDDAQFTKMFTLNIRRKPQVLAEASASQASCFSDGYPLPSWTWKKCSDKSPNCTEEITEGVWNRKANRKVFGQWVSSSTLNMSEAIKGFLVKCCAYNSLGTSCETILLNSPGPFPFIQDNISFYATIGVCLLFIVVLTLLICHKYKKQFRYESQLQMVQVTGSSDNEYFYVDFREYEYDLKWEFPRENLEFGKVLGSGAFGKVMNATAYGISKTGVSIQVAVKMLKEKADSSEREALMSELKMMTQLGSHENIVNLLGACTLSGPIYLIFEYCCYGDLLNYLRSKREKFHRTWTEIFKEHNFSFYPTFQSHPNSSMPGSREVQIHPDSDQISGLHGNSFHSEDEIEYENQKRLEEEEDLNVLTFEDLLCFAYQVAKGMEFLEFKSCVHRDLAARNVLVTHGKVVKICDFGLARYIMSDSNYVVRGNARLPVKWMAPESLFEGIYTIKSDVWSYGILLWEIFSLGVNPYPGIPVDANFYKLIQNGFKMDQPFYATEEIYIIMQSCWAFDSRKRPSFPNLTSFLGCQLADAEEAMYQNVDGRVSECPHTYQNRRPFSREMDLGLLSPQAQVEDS
In short: as §1

IC50 (FLT3-ITD) [µM] | IC50 (FLT3-D835Y) [µM] | Structure (SMILES)
1 to 10 | 0.0001 to 1 | COc1cc(-c2cnc3[nH]cc(-c4ccc5ncsc5c4)c3n2)ccc1Cl [P-161, 6-[2-(4-chloro-3-methoxy-phenyl)-5H-pyrrolo[2,3-b]pyrazin-7-yl]-1,3-benzothiazole]
0.0001 to 1 | 0.0001 to 1 | CC(C)(C)n1cnc2ccc(-c3c[nH]c4ncc(-c5cnc(C(F)(F)F)nc5)nc34)cc21 [P-343, 7-(3-tert-butylbenzimidazol-5-yl)-2-[2-(trifluoromethyl)pyrimidin-5-yl]-5H-pyrrolo[2,3-b]pyrazine]
0.0001 to 1 | 0.0001 to 1 | CC(C)(C)n1cnc2ccc(-c3c[nH]c4ncc(-c5cnc(C#N)c(Cl)c5)nc34)cc21 [P-361, 5-[7-(3-tert-butylbenzimidazol-5-yl)-5H-pyrrolo[2,3-b]pyrazin-2-yl]-3-chloro-pyridine-2-carbonitrile]
0.0001 to 1 | 0.0001 to 1 | Cn1cnc2ccc(-c3c[nH]c4ncc(-c5ccc(C#N)s5)cc34)cc21 [P-179, 5-[3-(3-methylbenzimidazol-5-yl)-1H-pyrrolo[2,3-b]pyridin-5-yl]thiophene-2-carbonitrile]
0.0001 to 1 | 0.0001 to 1 | CC(C)(C)n1cnc2ccc(-c3c[nH]c4ncc(-c5cnc(C6CC6)nc5)cc34)cc21 [P-340, 1-tert-butyl-6-[5-(2-cyclopropylpyrimidin-5-yl)-1H-pyrrolo[2,3-b]pyridin-3-yl]benzimidazole]
0.0001 to 1 | 0.0001 to 1 | CC(C)(C)n1cnc2ccc(-c3c[nH]c4ncc(-c5ccc(F)c(C#N)c5)cc34)cc21 [P-207, 5-[3-(3-tert-butylbenzimidazol-5-yl)-1H-pyrrolo[2,3-b]pyridin-5-yl]-2-fluoro-benzonitrile]
0.0001 to 1 | 0.0001 to 1 | Cn1cnc2ccc(-c3c[nH]c4ncc(-c5ccc(F)c(C#N)c5)cc34)cc21 [P-141, 2-fluoro-5-[3-(3-methylbenzimidazol-5-yl)-1H-pyrrolo[2,3-b]pyridin-5-yl]benzonitrile]
0.0001 to 1 | 0.0001 to 1 | COc1cnc2[nH]cc(-c3ccc4ncn(Cc5ccc(Cl)cc5)c4c3)c2c1 [P-111, 1-[(4-chlorophenyl)methyl]-6-(5-methoxy-1H-pyrrolo[2,3-b]pyridin-3-yl)benzimidazole]
0.0001 to 1 | 0.0001 to 1 | Fc1ccc(-n2cnc3ccc(-c4c[nH]c5ncc(-c6cccc(OC(F)(F)F)c6)nc45)cc32)cc1 [P-192, 7-[3-(4-fluorophenyl)benzimidazol-5-yl]-2-[3-(trifluoromethoxy)phenyl]-5H-pyrrolo[2,3-b]pyrazine]

More lines, now with the values behind:

Structure (SMILES) | IC50 (FLT3-ITD) [µM] | IC50 (FLT3-D835Y) [µM]
COc1cnc2[nH]cc(-c3ccc4c(c3)N(C)CCO4)c2c1 [P-107, 6-(5-methoxy-1H-pyrrolo[2,3-b]pyridin-3-yl)-4-methyl-2,3-dihydro-1,4-benzoxazine] | 0.0001 to 1 | 0.0001 to 1
CC(C)S(=O)(=O)Nc1cccc(-c2cnc3[nH]cc(-c4ccc5ncn(C(C)(C)C)c5c4)c3c2)c1 [P-214, N-[3-[3-(3-tert-butylbenzimidazol-5-yl)-1H-pyrrolo[2,3-b]pyridin-5-yl]phenyl]propane-2-sulfonamide] | 0.0001 to 1 | 0.0001 to 1
CC(C)(C)n1cnc2ccc(-c3c[nH]c4ncc(-c5ccnc(C6CC6)c5)nc34)cc21 [P-351, 7-(3-tert-butylbenzimidazol-5-yl)-2-(2-cyclopropyl-4-pyridyl)-5H-pyrrolo[2,3-b]pyrazine] | 0.0001 to 1 | 0.0001 to 1
COc1cc(-c2cnc3[nH]cc(-c4ccc5ncn(C6CCCC6)c5c4)c3n2)ccn1 [P-114, 7-(3-cyclopentylbenzimidazol-5-yl)-2-(2-methoxy-4-pyridyl)-5H-pyrrolo[2,3-b]pyrazine] | 0.0001 to 1 | 0.0001 to 1
CC(C)(C)n1cnc2ccc(-c3c[nH]c4ncc(-c5cccc(OC(F)(F)F)c5)nc34)cc21 [P-191, 7-(3-tert-butylbenzimidazol-5-yl)-2-[3-(trifluoromethoxy)phenyl]-5H-pyrrolo[2,3-b]pyrazine] | 0.0001 to 1 | 0.0001 to 1
N#Cc1cccc(-c2cnc3[nH]cc(-c4ccc5ncn(-c6ccc(F)cc6)c5c4)c3c2)c1 [P-201, 3-[3-[3-(4-fluorophenyl)benzimidazol-5-yl]-1H-pyrrolo[2,3-b]pyridin-5-yl]benzonitrile] | 0.0001 to 1 | 0.0001 to 1
CN(C)c1ncc(-c2cnc3[nH]cc(-c4ccc5ncn(C(C)(C)C)c5c4)c3n2)cn1 [P-378, 5-[7-(3-tert-butylbenzimidazol-5-yl)-5H-pyrrolo[2,3-b]pyrazin-2-yl]-N,N-dimethyl-pyrimidin-2-amine] | 0.0001 to 1 | 0.0001 to 1
COc1cc(-c2cnc3[nH]cc(-c4ccc5ncn(-c6ccc(F)cc6)c5c4)c3n2)ccn1 [P-206, 7-[3-(4-fluorophenyl)benzimidazol-5-yl]-2-(2-methoxy-4-pyridyl)-5H-pyrrolo[2,3-b]pyrazine] | 0.0001 to 1 | 0.0001 to 1
COc1cccc(-c2cnc3[nH]cc(-c4ccc5ncn(C)c5c4)c3n2)c1 [P-145, 2-(3-methoxyphenyl)-7-(3-methylbenzimidazol-5-yl)-5H-pyrrolo[2,3-b]pyrazine] | 0.0001 to 1 | 0.0001 to 1
COc1cc(-c2cnc3[nH]cc(-c4ccc5ncsc5c4)c3n2)cc(C)n1 [P-173, 6-[2-(2-methoxy-6-methyl-4-pyridyl)-5H-pyrrolo[2,3-b]pyrazin-7-yl]-1,3-benzothiazole] | 0.0001 to 1 | 0.0001 to 1
CC(C)N1CCOc2ccc(-c3c[nH]c4ncc(C5=CCN(C(=O)C6CC6)C5)nc34)cc21 [P-189, cyclopropyl-[3-[7-(4-isopropyl-2,3-dihydro-1,4-benzoxazin-6-yl)-5H-pyrrolo[2,3-b]pyrazin-2-yl]-2,5-dihydropyrrol-1-yl]methanone] | 0.0001 to 1 | 0.0001 to 1
COc1cc(-c2cnc3[nH]cc(-c4ccc5ncn(C(C)(C)C)c5c4)c3n2)ccc1C#N [P-354, 4-[7-(3-tert-butylbenzimidazol-5-yl)-5H-pyrrolo[2,3-b]pyrazin-2-yl]-2-methoxy-benzonitrile] | 0.0001 to 1 | 0.0001 to 1
CCS(=O)(=O)Nc1cccc(-c2cnc3[nH]cc(-c4ccc5ncsc5c4)c3n2)c1 [P-169, N-[3-[7-(1,3-benzothiazol-6-yl)-5H-pyrrolo[2,3-b]pyrazin-2-yl]phenyl]ethanesulfonamide] | 0.0001 to 1 | 0.0001 to 1
CC(C)(C)n1cnc2ccc(-c3c[nH]c4ncc(-c5ccc(C6CC6)nc5)nc34)cc21 [P-353, 7-(3-tert-butylbenzimidazol-5-yl)-2-(6-cyclopropyl-3-pyridyl)-5H-pyrrolo[2,3-b]pyrazine] | 0.0001 to 1 | 0.0001 to 1
CN1CCN(c2ncc(-c3cnc4[nH]cc(-c5ccc6ncn(C(C)(C)C)c6c5)c4n3)cn2)CC1 [P-349, 7-(3-tert-butylbenzimidazol-5-yl)-2-[2-(4-methylpiperazin-1-yl)pyrimidin-5-yl]-5H-pyrrolo[2,3-b]pyrazine] | 0.0001 to 1 | 0.0001 to 1

Reference: patent publication US10160755B2 (Plexxikon Inc., priority 2015, dated 2018)
